Data reported in patent publication US20130270195A1, “MULTIFUNCTIONAL COMPOSITION FOR THE DISINFECTION TREATMENT OF WATER, AND USE OF THIS COMPOSITION” (Compagnie Des Salins Du Midi Et Des Salines De L'Est, priority 2010, published 2013).

Experiments:
[1] = Evolution of turbidity of swimming pool water samples (HACH turbidity meter); type: physicochemical; conditions: for Turbidity: Aquacid or metasilicate 40.0 mg/L
Source text: The aim of this test was to compare the effect of two compositions comprising sodium chloride and isocyanuric acid in disinfecting swimming pool water, one further comprising HEDP, and the other metasilicate in order to obtain a composition according to the invention.
In all of the examples below, the substances used were as follows: • salt; • isocyanuric acid; • Aquacid© (powder with 72% HEDP); • disodium metasilicate pentahydrate; • tap water; • commercial bleach (concentration of bleach: 2.15% of active chlorine); • 1N hydrochloric acid; • 35% sulfuric acid; • sodium hydroxide; and • acetone.
The following proportions were prepared to prepare the samples:
The measurement of the turbidity, in NTU (Nephelometric Turbidity Unit), was carried out with the aid of a HACH turbidity meter at the time intervals indicated in Table 3. The reaction conditions were selected in order to accelerate the appearance of any cloudiness.

[2] = Anti-limescale effect: calcium deposited as limescale on beaker walls; conditions: for anti-limescale activity: conclusion in words; for % non limescale calcium / Calcium (part of the calcium responsible for the production of limescale): sample 11 Aquacid 24.0 mg/L, sample 14 metasilicate 20.0 mg/L
Procedure: The aim of this test was to analyze the reaction of two additives (HEDP, metasilicate) in the presence of calcium.
The apparatus used was as follows: • new beakers with a volume of 400 milliliters (mL), a pH meter, an oven at 70° C., plastic film as well as normal laboratory apparatus (including class A glassware).
The operating protocol can be summarized as follows: • For each test formulation, 300 mL of equivalent swimming pool solution was prepared in the beakers provided. Each series of analyses was spread over two types of water: one with a HT=30° F. and one with a HT=15° F., in order to produce a spectrum of results covering a broad range of water types. The isocyanuric acid was added in the liquid form from a 1 grams per liter (g/L) solution. The additives (HEDP, metasilicate) for the formulations were added in the liquid form from 1 g/L solutions. The solutions were systematically buffered, either with sulfuric acid or with sodium hydroxide, in order to provide an initial pH in the range 6.8 to 7.4 (maximum efficiency range for chlorine). The solutions were left covered with film and were analyzed 3 days later so that the substances had reacted. At the time the analysis was carried out, the beakers were placed in an oven at 70° C. in order to evaporate the liquid phase. They were then rinsed with 100 ml of osmosis purified water in order to eliminate the soluble deposits and to leave only limescale deposits on their walls. The beakers were then refilled with osmosis purified water and 1 mL of 1N hydrochloric acid in order to dissolve the deposits: the measurements were carried out on these solutions.
The parameters below were monitored during the study: • The following were measured for the starting tap water: pH, HT (hydrptimetric titer), calcium, AT (alkalimetric titer), and CAT (complete alkalimetric titer).
The pH was monitored throughout the experiment. The calcium was measured at the end of the experiment.

[3] = Chlorine stabilizing effect under UV radiation (residual chlorine assay); type: physicochemical; conditions: for Residual chlorine: starting 3 mg/L Cl2, sample 11 Aquacid 24.0 mg/L, sample 14 metasilicate 20.0 mg/L
Procedure: In the presence of UV radiation, chlorine is destroyed photochemically. Isocyanuric acid can be used to reduce the destruction of chlorine under the effect of UV.
The following apparatus was used: 5 liter volume bucket, pH meter and normal laboratory apparatus (including class A glassware).
The operating procedure can be summarized as follows: • For each test formulation, two liters of solution was prepared in the buckets provided. The isocyanuric acid was added in the liquid form from a 1 g/L solution. The additives (metasilicates, HEDP) for the formulations were added in the liquid form from 1 g/L solutions. The dose of chlorine necessary for this study was provided by bleach in quantities that meant that solutions containing 3 mg/L of Cl2 were obtained. The solutions were systematically buffered, either with sulfuric acid or with sodium hydroxide, in order to provide a starting pH in the range 6.8 to 7.4 (zone of maximum efficiency for chlorine).
The following parameters were measured during the study: • for the starting water: pH, residual chlorine, HT, calcium, AT, CAT were measured; • throughout the experiment: pH, residual chlorine were monitored.
The chlorine measurements were carried out using quantitative chlorine assay. The measurements were carried out at times T+32 h10 and T+50 h10; the formulation of the compositions at time T are given in Table 4.

[4] = Anti-corrosion effect: steel plate immersed in 4 g/L saline solutions; conditions: for anti-corrosion activity: conclusion in words; for Fe loss/plate: results at 2 months, 4 g/L saline, sample 11 Aquacid 24.0 mg/L, sample 14 metasilicate 20.0 mg/L
Procedure: The principle of the method consists of completely immersing, in 4 g/L saline solutions with the compounds of the formulations, one steel plate per beaker, disposed vertically in order to have as little contact as possible with the glass. The formulations were those presented in section 4 in Example 3.
The efficacy of the formulations was evaluated as a function of the loss on ignition of the plate over a period of time, namely 2 months.
The following apparatus was used: • 400 mL beakers, pH-meter, steel plate with a surface area of 5.3 cm^2, plastic film as well as normal laboratory apparatus (including class A glassware). The operating protocol can be summarized as follows:
• stripping the plates with 1N hydrochloric acid using ultrasound in order to have plates of identical quality; • degreasing the plate with acetone in order to obtain identical active surfaces; • weighing the plates with milligram precision.
Swimming pool concentration solutions were prepared in advance in 2 liters (L) graduated flasks in order to provide mutually homogeneous media. The beakers were filled with 300 mL of the above-mentioned solutions. The beakers were covered with food quality film in order to prevent the medium from being polluted and in order to prevent too much evaporation.
The parameters measured were as follows: • on the tap water: pH, HT, AT, CAT, calcium.
In order to accelerate the phenomenon of corrosion, bubbling was carried out using an aquarium pump and outlet jets mounted on a rail. The bubbling time was 10 minutes. The solutions were aerated on odd days of the week. Since bubbling raises the pH, it was brought back to swimming pool in-service values, between 6.8 and 7.4. In order to maintain the salinity at 4 g/L and to overcome natural evaporation, tap water was added in order to keep the volume of water constant at 300 mL.
The following parameters were measured: • pH; • observations of the solutions and immersed plates once a day, taking photographs. These observations were made without handling either the beakers or the solutions.
The scraping spatula was treated with ultrasound then the plates were scraped using the spatula to recover the deposit. In order to terminate stripping of the plate and thus to collect all of the deposit, the plate and the spatula were treated with ultrasound in a water bath. The deposits were then filtered through 10 micrometer (pm) pores and 1.2 μm pores and then dried.
The following parameters were measured: • the plates were weighed to milligram precision; • an iron analysis was carried out on the plates; • a dissolved iron analysis was carried out on the solutions.
The analyses were carried out after 2 months.

[5] = time T, salt 4.0 g/L, iso acid 28.0 mg/L, chlorine 3.0 mg/L
[6] = first starting water, HT 27 °f, calcium 109 mg/L
[7] = second starting water, HT 14.6 °f
[8] = second starting water, HT 14.6 °f, calcium 44.3 mg/L

Turbidity ([1]; T + 94 h)	Turbidity ([1]; T + 118 h)	Turbidity ([1]; T + 142 h)	Turbidity ([1]; T + 168 h)	Turbidity ([1]; T + 192 h)	Turbidity ([1]; T + 216 h)	Turbidity [1, 5]	Loss of chlorine ([3]; T + 32 h 10)	Residual chlorine ([3]; T + 32 h 10)	Loss of chlorine ([3]; T + 50 h 10)	Residual chlorine ([3]; T + 50 h 10)	SMILES	anti-limescale activity [2]	calcium in the water before treatment transformed into limescale ([2]; first starting water, HT 27 °f)	% non limescale calcium [2, 6]	Calcium (part of the calcium responsible for the production of limescale) [2, 6]	calcium of the water before treatment transformed into limescale [2, 7]	% non limescale calcium [2, 8]	Calcium (part of the calcium responsible for the production of limescale) [2, 8]	anti-corrosion activity [4]	Fe loss/plate [4]	also measured
20.5 NTU	22.5 NTU	30.1 NTU	34.2 NTU	44.4 NTU	56.8 NTU	0.243 NTU	100.00%	0 mg/L	100.00%	0 mg/L	CC(O)(P(=O)(O)O)P(=O)(O)O [HEDP, 1-hydroxyethane-1,1-diphosphonic acid, reference compound]	have an anti-limescale activity	7.9%	92.1%	8.6 mg/L	8.6%	91.4%	3.8 mg/L	have an anti-corrosion activity	2.80%	–
0.538 NTU	0.547 NTU	0.526 NTU	0.579 NTU	1.4 NTU	1.45 NTU	0.274 NTU	36.36%	1.89 mg/L	62.96%	1.1 mg/L	O.O.O.O.O.O=[Si]([O-])[O-].[Na+].[Na+] [Metasilicate, disodium metasilicate pentahydrate]	better anti-limescale activity than that of the HEDP	3.5%	96.5%	3.8 mg/L	5.9%	94.1%	2.6 mg/L	anti-corrosion activity that is even better than that of HEDP	1.63%	cloudiness of the water detectable to the naked eye ([1]; same conditions as Table 3): does not induce any cloudiness; preservation of the residual chlorine concentration ([3]; conclusion in words): preserves the residual chlorine concentration better than HEDP
